The values that follow come from PubChem BioAssay (NCI).

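Test compounds were applied to cells in 96-well plates for 48 hours at 5 doses. Definition used: TGI = concentration required for complete inhibition of growth.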

One assay concerns M19-MEL melanoma. In words: growth of human tumour cells (NCI), 48 h.
Take `C[N+](C)(C)CC(=O)N/N=c1\cc(C(=O)Nc2ccc(N=O)cc2C#N)oc2cc(O)ccc12`: the TGI was above 100 µM.

Molecule `COc1ccc(/C(=C/n2ccnc2)C(=O)c2ccc(OC)c(OC)c2)cc1` registered a TGI above 100 µM.

For the molecule `O=C1CC2(C[C@@H]3CCCCCCCCC[C@@H](C3)C2)N1` (some centres undefined), the TGI turned out to be 28.8 µM.

In the case of `COC1O[C@H]2CCN(C(=O)OCc3ccccc3)[C@H]2[C@H]1OCc1ccccc1` (some centres undefined), the TGI is above 100 µM.

As for `Cc1c(Cl)cccc1NC(=O)C(=O)C1C(=O)CC(C)(C)CC1=O`, the TGI was above 100 µM.

`COc1ccc2nc(-c3ccc(OCc4ccccc4)cc3)ccc2c1` showed a TGI above 100 µM.

The subject of another assay is DMS 273 small cell lung. In words: growth of human tumour cells (NCI), 48 h.
`CC(C)CC(N)C(=O)OCN1C(=O)C2C3C=CC(C2C1=O)C1C2C(=O)N(COC(=O)C(N)CC(C)C)C(=O)C2C31` (centres undefined) returned a TGI above 100 µM.

`C[N+](C)(C)CC(=O)N/N=c1\cc(C(=O)Nc2ccc(N=O)cc2C#N)oc2cc(O)ccc12` yielded a TGI above 100 µM.

Molecule `N#CCCN(c1ccc(C=Nc2cccc([N+](=O)[O-])c2)cc1)S(=O)(=O)c1ccccc1` came in with a TGI above 100 µM.

The molecule `COc1ccc(/C(=C/n2ccnc2)C(=O)c2ccc(OC)c(OC)c2)cc1` had a TGI above 100 µM.

Turning to `O=C1CC2(C[C@@H]3CCCCCCCCC[C@@H](C3)C2)N1` (some centres undefined), the TGI is 25.3 µM.

As for `COC1O[C@H]2CCN(C(=O)OCc3ccccc3)[C@H]2[C@H]1OCc1ccccc1` (some centres undefined), the TGI was above 100 µM.

`Cc1c(Cl)cccc1NC(=O)C(=O)C1C(=O)CC(C)(C)CC1=O` gave a TGI above 100 µM.

The next assay has as its system SNB-78 CNS. In words: growth of human tumour cells (NCI), 48 h.
For the molecule `CC(C)CC(N)C(=O)OCN1C(=O)C2C3C=CC(C2C1=O)C1C2C(=O)N(COC(=O)C(N)CC(C)C)C(=O)C2C31` (centres undefined), the TGI was above 100 µM.

On to `C[N+](C)(C)CC(=O)N/N=c1\cc(C(=O)Nc2ccc(N=O)cc2C#N)oc2cc(O)ccc12`, for which the TGI was above 100 µM.

`N#CCCN(c1ccc(C=Nc2cccc([N+](=O)[O-])c2)cc1)S(=O)(=O)c1ccccc1` gave a TGI above 100 µM.

Consider `O=C1CC2(C[C@@H]3CCCCCCCCC[C@@H](C3)C2)N1` (some centres undefined), for which the TGI was 49.6 µM.

`COC1O[C@H]2CCN(C(=O)OCc3ccccc3)[C@H]2[C@H]1OCc1ccccc1` (some centres undefined): the TGI was above 100 µM.

In turn, `Cc1c(Cl)cccc1NC(=O)C(=O)C1C(=O)CC(C)(C)CC1=O` returned a TGI above 100 µM.

For the molecule `O=C1O[C@@H](c2ccccc2)C[C@@H]1CN1CCOCC1`, the TGI is above 100 µM.

For the molecule `COc1ccc2nc(-c3ccc(OCc4ccccc4)cc3)ccc2c1`, the TGI is above 100 µM.

For the next assay, the system named is NCI-H460 lung. In words: growth of human tumour cells (NCI), 48 h.
Molecule `CC(C)CC(N)C(=O)OCN1C(=O)C2C3C=CC(C2C1=O)C1C2C(=O)N(COC(=O)C(N)CC(C)C)C(=O)C2C31` (centres undefined) had a TGI above 100 µM.

The molecule `C[N+](C)(C)CC(=O)N/N=c1\cc(C(=O)Nc2ccc(N=O)cc2C#N)oc2cc(O)ccc12` gave a TGI above 100 µM.

`COc1ccc(/C(=C/n2ccnc2)C(=O)c2ccc(OC)c(OC)c2)cc1`: the TGI is above 100 µM.

The molecule `O=C1CC2(C[C@@H]3CCCCCCCCC[C@@H](C3)C2)N1` (some centres undefined) showed a TGI of 38.4 µM.

Regarding `COC1O[C@H]2CCN(C(=O)OCc3ccccc3)[C@H]2[C@H]1OCc1ccccc1` (some centres undefined), the TGI was above 100 µM.

`Cc1c(Cl)cccc1NC(=O)C(=O)C1C(=O)CC(C)(C)CC1=O` displayed a TGI above 100 µM.

Molecule `O=C1O[C@@H](c2ccccc2)C[C@@H]1CN1CCOCC1` had a TGI above 100 µM.

For the molecule `COc1ccc2nc(-c3ccc(OCc4ccccc4)cc3)ccc2c1`, the TGI is above 100 µM.

Consider `COC1(C)CC2N(C(=O)c3ccccc3)N=C(c3ccccc3)CC2(C)O1` (centres undefined), for which the TGI was above 100 µM.

Another assay concerns KM20L2 colon. The assay is described as follows: growth of human tumour cells (NCI), 48 h.
With `CC(C)CC(N)C(=O)OCN1C(=O)C2C3C=CC(C2C1=O)C1C2C(=O)N(COC(=O)C(N)CC(C)C)C(=O)C2C31` (centres undefined), the TGI was above 100 µM.

In the case of `C[N+](C)(C)CC(=O)N/N=c1\cc(C(=O)Nc2ccc(N=O)cc2C#N)oc2cc(O)ccc12`, the TGI is above 100 µM.

Regarding `COc1ccc(/C(=C/n2ccnc2)C(=O)c2ccc(OC)c(OC)c2)cc1`, the TGI was above 100 µM.

Molecule `O=C1CC2(C[C@@H]3CCCCCCCCC[C@@H](C3)C2)N1` (some centres undefined) registered a TGI of 31.4 µM.

The molecule `COC1O[C@H]2CCN(C(=O)OCc3ccccc3)[C@H]2[C@H]1OCc1ccccc1` (some centres undefined) registered a TGI above 100 µM.

`Cc1c(Cl)cccc1NC(=O)C(=O)C1C(=O)CC(C)(C)CC1=O` yielded a TGI above 100 µM.

In the case of `O=C1O[C@@H](c2ccccc2)C[C@@H]1CN1CCOCC1`, the TGI was above 100 µM.

`COc1ccc2nc(-c3ccc(OCc4ccccc4)cc3)ccc2c1` returned a TGI above 100 µM.

The molecule `COC1(C)CC2N(C(=O)c3ccccc3)N=C(c3ccccc3)CC2(C)O1` (centres undefined) displayed a TGI above 100 µM.

For the next assay, the system named is RXF-631 renal. The assay is described as follows: growth of human tumour cells (NCI), 48 h.
The molecule `CC(C)CC(N)C(=O)OCN1C(=O)C2C3C=CC(C2C1=O)C1C2C(=O)N(COC(=O)C(N)CC(C)C)C(=O)C2C31` (centres undefined) showed a TGI above 100 µM.

For `C[N+](C)(C)CC(=O)N/N=c1\cc(C(=O)Nc2ccc(N=O)cc2C#N)oc2cc(O)ccc12`, the TGI was above 100 µM.

As for `N#CCCN(c1ccc(C=Nc2cccc([N+](=O)[O-])c2)cc1)S(=O)(=O)c1ccccc1`, the TGI was above 100 µM.

Take `Cc1c(Cl)cccc1NC(=O)C(=O)C1C(=O)CC(C)(C)CC1=O`: the TGI was above 100 µM.

In the case of `O=C1O[C@@H](c2ccccc2)C[C@@H]1CN1CCOCC1`, the TGI was above 100 µM.

The molecule `COC1(C)CC2N(C(=O)c3ccccc3)N=C(c3ccccc3)CC2(C)O1` (centres undefined) gave a TGI above 100 µM.

The subject of another assay is DMS 114 small cell lung. The assay is described as follows: growth of human tumour cells (NCI), 48 h.
As for `CC(C)CC(N)C(=O)OCN1C(=O)C2C3C=CC(C2C1=O)C1C2C(=O)N(COC(=O)C(N)CC(C)C)C(=O)C2C31` (centres undefined), the TGI was above 100 µM.

With `C[N+](C)(C)CC(=O)N/N=c1\cc(C(=O)Nc2ccc(N=O)cc2C#N)oc2cc(O)ccc12`, the TGI is above 100 µM.

The molecule `N#CCCN(c1ccc(C=Nc2cccc([N+](=O)[O-])c2)cc1)S(=O)(=O)c1ccccc1` had a TGI above 100 µM.

For the molecule `COc1ccc(/C(=C/n2ccnc2)C(=O)c2ccc(OC)c(OC)c2)cc1`, the TGI is above 100 µM.
